The values that follow are results of earlier work, collected in patent publication US20080195229A1, “Decellularized pericardial tissue” (priority 2007, published 2008).

The subject of one data set is rabbit. As to conditions: in vivo, iv.
In data set [1] the test system is Chinese hamster ovary (CHO-K1) cells. As to conditions: in vitro.
The test system of a further data set is 3T3 fibroblasts. As to conditions: in vitro.

In general, LD50 refers to the dose at which mortality reaches 50%. As for `C[C@H](CCC(=O)O)[C@H]1CC[C@H]2[C@@H]3CC[C@@H]4C[C@H](O)CC[C@]4(C)[C@H]3C[C@H](O)[C@]12C` [Deoxycholic acid], where the note is “alcohol”, the solubility in alcohol entry is listed as “soluble”. Moreover, the solubility in water entry (water) was “sparingly soluble”. Also, in the data set with rabbit, the median lethal dose (LD50) is on record as 15 mg/kg.

Regarding `COC(=O)C1=CO[C@@H](O)[C@@H]2C(CO)=CC[C@H]12` [genipin], the “clastogenic response (genotoxicity)” value in data set [1] is “does not cause clastogenic response”. Further, the “cytotoxicity compared with glutaraldehyde” value in the data set with 3T3 fibroblasts is reported as “substantially less cytotoxic than glutaraldehyde”.
